According to ChEMBL document CHEMBL3286375, “Total synthesis and antiplasmodial activity of pohlianin C and analogues” (Bioorg Med Chem Lett, 2014):
Non-standard residues stand in square brackets, D forms with d. Residues, ends and D or L forms follow the SMILES beside them. 3Amb = NCc1cccc(C(=O)O)c1; 4Abz = Nc1ccc(C(=O)O)cc1; Ava = NCCCCC(=O)O

How the values were obtained:
[1] = test system: Plasmodium falciparum; experiment: Antiplasmodial activity against asexual blood stage chloroquine-sensitive Plasmodium falciparum 3D7 assessed as parasite growth inhibition at 40 uM by image-based assay relative to control; assay type: functional
[2] = test system: Plasmodium falciparum; experiment: Antiplasmodial activity against asexual blood stage chloroquine-sensitive Plasmodium falciparum 3D7 assessed as parasite growth inhibition by image-based assay; assay type: functional, organism-based
[3] = test system: Plasmodium falciparum; experiment: Antiplasmodial activity against asexual blood stage chloroquine-sensitive Plasmodium falciparum 3D7 assessed as parasite growth inhibition at 2 uM by image-based assay relative to control; assay type: functional
[4] = test system: Plasmodium falciparum; experiment: Antiplasmodial activity against Plasmodium falciparum assessed as parasite growth inhibition; assay type: functional, organism-based

Structure (SMILES) | inhibition at 40 µM [1] | IC50 [2] | inhibition at 2 µM [3] | IC50 [4]
CC[C@H](C)[C@@H]1NC(=O)[C@H]([C@@H](C)O)NC(=O)c2cccc(c2)CNC(=O)[C@H](Cc2ccccc2)NC(=O)CNC(=O)[C@H](Cc2ccccc2)NC(=O)[C@H]([C@@H](C)CC)NC1=O (cyclo([3Amb]TIIFGF)) | 86% | 4 µM |  | 
C[C@@H]1CC[C@H]2[C@@H](C)C(=O)O[C@@H]3O[C@@]4(C)CC[C@@H]1[C@]32OO4 [ARTEMISININ] |  | 0.013 µM | 100% | 
CC(C)C[C@@H]1NC(=O)[C@H](CC(C)C)NC(=O)[C@H](C(C)C)NC(=O)CNC(=O)[C@H](CC(C)C)NC(=O)[C@@H]2CCCN2C(=O)[C@H](Cc2ccc(O)cc2)NC1=O (cyclo(GVLLYPL)) |  |  |  | 57 µM
CC[C@H](C)[C@@H]1NC(=O)[C@H]([C@@H](C)O)NC(=O)CCCCNC(=O)[C@H](Cc2ccccc2)NC(=O)CNC(=O)[C@H](Cc2ccccc2)NC(=O)[C@H]([C@@H](C)CC)NC1=O (cyclo([Ava]TIIFGF)) | 87% | 23 µM |  | 
CC[C@H](C)[C@@H]1NC(=O)[C@H]([C@@H](C)O)NC(=O)c2ccc(cc2)NC(=O)[C@H](Cc2ccccc2)NC(=O)CNC(=O)[C@H](Cc2ccccc2)NC(=O)[C@H]([C@@H](C)CC)NC1=O (cyclo([4Abz]TIIFGF)) | 12% |  |  | 
CC(C)C[C@@H]1NC(=O)CNC(=O)[C@H](CC(C)C)NC(=O)[C@@H]2CCCN2C(=O)[C@H](Cc2ccc(O)cc2)NC(=O)[C@H](CC(C)C)NC(=O)[C@H](CC(C)C)NC1=O (cyclo(GLLLYPL)) |  |  |  | 25 µM
CC[C@H](C)[C@@H]1NC(=O)[C@H]([C@@H](C)O)NC(=O)CNC(=O)CNC(=O)[C@H](Cc2ccccc2)NC(=O)CNC(=O)[C@H](Cc2ccccc2)NC(=O)[C@H]([C@@H](C)CC)NC1=O (cyclo(FGFGGTII)) | 78% | 25 µM |  | 16 µM
